Like-named read-outs stand apart in the source and are kept apart here. Blank lines part the entries; values can stand above or below the compound they belong to.
Experiments:
[1] = Retention in blood: carotenoid concentration in serum of mice (Test Example 1); assay type: in vivo, ICR strain mice; settings: 50 mg/kg body weight orally once daily for 10 days, blood 4 hours after last administration
Text: Adonixanthin was used as an asymmetric carotenoid, and astaxanthin was used as a symmetric carotenoid. As experimental animals, ICR strain mice were used. Fourteen (14) mice were used, and 4 mice each were assigned to the adonixanthin-administration group and the astaxanthin-administration group, and 6 mice were assigned to the control administration group. In grouping, each group was constituted so that the mean body weight in each group was as uniform as possible based on the body weight on the day before initiation of administration. For each experimental group, blood was collected before initiation of administration of dosing substances. […] Each of the concentration of adonixanthin in serum of blood collected from the adonixanthin-administration group (concentration relative to 1 mL of serum) and the concentration of astaxanthin in serum of blood collected from the astaxanthin-administration group (concentration relative to 1 mL of serum) was measured. […] In HPLC, the concentration of adonixanthin was measured as a concentration of each of the cis isomer and the trans isomer. In HPLC, the concentration of astaxanthin was measured as a concentration of each of the cis isomer and the trans isomer. […] From serum collected from the control administration group, neither adonixanthin nor astaxanthin were detected.

[2] = Transfer into each organ: carotenoid concentration in organs of cynomolgus monkeys (Test Example 3); assay type: in vivo; settings: cynomolgus monkey
Procedure: As experimental animals, cynomolgus monkeys were used. Two cynomolgus monkeys were used, and an adonixanthin dosing solution was administered to one monkey (adonixanthin-administering monkey), while an astaxanthin dosing solution was administered to the other monkey (astaxanthin-administering monkey). As the dosing solutions, the dosing solutions obtained in Preparation Example 2 were used, and the dosing solutions at a dose such that the dose of adonixanthin or astaxanthin was 50 mg/kg body weight were administered once daily for 10 days (the day of initiation of administration of the dosing solutions was defined as day 1). As the administration method, a disposable catheter was inserted from the nasal cavity into the stomach, and the dosing solutions were injected into the stomach using a syringe. When the dosing solutions were collected into a syringe, the dosing solutions were collected while being stirred with a stirrer. The dose in each administration was calculated based on the latest body weight at each administration time point (the body weight was measured on the day of initiation of acclimation, the day of end of acclimation, the day of initiation of administration, and before administration on day 8 of administration using an electric balance (HP-40K or GP-40K, both of which are manufactured by A&D Company, Limited)). The administration time was 8:30 to 13:30.
During the administration period of the dosing solution, each cynomolgus monkey was fed about 108 g (about 12 g×9 pieces) of a pellet once daily at 14:00 to 16:00, and the feed remained by the feeding on the next day (for the day of administration, before administration) was recovered. Each cynomolgus monkey was fed tap water at libitum, and maintained on a 12-h light/dark cycle, at […], with a relative humidity of 50±20%.
After blood collection after the last administration of the dosing solutions, an aqueous solution of pentobarbital sodium (manufactured by Tokyo Chemical Industry Co., Ltd.) (64.8 mg/mL) was administered into the cephalic vein at a volume of 0.4 mL/kg body weight to perform anesthesia. After the body weight was measured, each cynomolgus monkey was euthanized by exsanguination, and the brain (cerebral cortex, cerebral medulla, cerebellum, midbrain, striatum putamen, striatum caudate nucleus, hippocampus, medulla oblongata, diencephalon), the heart, the spleen, the liver, the kidneys (right and left), and the retina were collected. Each organ thus collected was stored in a deep freezer (−70° C. or lower).
Each of the concentration of adonixanthin in each organ collected from the adonixanthin-administering monkey (concentration relative to the weight of each organ) and the concentration of astaxanthin in each organ collected from the astaxanthin-administering monkey (concentration relative to the weight of each organ) was measured. Specifically, each organ was homogenized, and extraction was repeated with acetone until no color occurred. Then, filtration through a filter was performed to evaporate acetone, and diethyl ether:hexane (2:8, v/v) was added to the solution to extract a carotenoid. Furthermore, evaporation to dryness was performed, and the residue was dissolved in acetone:hexane (2:8, v/v) and subjected to HPLC. As the HPLC device, a Hitachi L-6000 intelligent pump and an L-4250 UV-VIS detector were used. The measurement wavelength was 450 nm, and a column of 5 μm Cosmosil 5SL-II (inner diameter of 250×4.6 mm) (manufactured by Nacalai Tesque, Inc.) was used. As the mobile phase, acetone:hexane (2:8, v/v) was used, and measurement was performed at a flow rate of 1.0 mL/min.
Each of the concentration of adonixanthin in each organ collected from the adonixanthin-administering monkey and the concentration of astaxanthin in each organ collected from the astaxanthin-administering monkey is shown in Table 2.

Concentration in serum (total of cis isomer and trans isomer), FIG. 1 [1]: exist in serum at a high concentration | concentration at 10 days ([2]; in vivo, 50 mg/kg, Concentration in organ: Brain, Cerebellum): 14.4 ng/g | concentration at 10 days ([2]; in vivo, 50 mg/kg, Concentration in organ: Brain, Cerebral cortex): 4.8 ng/g | concentration at 10 days ([2]; in vivo, 50 mg/kg, Concentration in organ: Brain, Cerebral medulla): 8.3 ng/g | concentration at 10 days ([2]; in vivo, 50 mg/kg, Concentration in organ: Brain, Diencephalon): 5.2 ng/g | concentration at 10 days ([2]; in vivo, 50 mg/kg, Concentration in organ: Brain, Hippocampus): 7.1 ng/g | concentration at 10 days ([2]; in vivo, 50 mg/kg, Concentration in organ: Brain, Medulla oblongata): 8.3 ng/g | concentration at 10 days ([2]; in vivo, 50 mg/kg, Concentration in organ: Brain, Midbrain): 2.9 ng/g | concentration at 10 days ([2]; in vivo, 50 mg/kg, Concentration in organ: Brain, Striatum Caudate nucleus): 10.2 ng/g | concentration at 10 days ([2]; in vivo, 50 mg/kg, Concentration in organ: Brain, Striatum Putamen): 5 ng/g | concentration at 10 days ([2]; in vivo, 50 mg/kg, Concentration in organ: Heart): 15.7 ng/g | concentration at 10 days ([2]; in vivo, 50 mg/kg, Concentration in organ: Kidney (left)): 228 ng/g | concentration at 10 days ([2]; in vivo, 50 mg/kg, Concentration in organ: Kidney (right)): 231 ng/g | concentration at 10 days ([2]; in vivo, 50 mg/kg, Concentration in organ: Liver): 37.8 ng/g | concentration at 10 days ([2]; in vivo, 50 mg/kg, Concentration in organ: Retina): 24.4 ng/g | concentration at 10 days ([2]; in vivo, 50 mg/kg, Concentration in organ: Spleen): 88.8 ng/g
SMILES: CC1=C(/C=C/C(C)=C/C=C/C(C)=C/C=C/C=C(C)/C=C/C=C(C)/C=C/C2=C(C)C(=O)C(O)CC2(C)C)C(C)(C)CC(O)C1=O (stereo not drawn) [astaxanthin, 3,3′-dihydroxy-β,β-carotene-4,4′-dione]
Transfer into and retention in each organ (summary of Table 2) ([2]; in vivo, 50 mg/kg): exist in each organ at a high concentration

concentration at 10 days ([2]; brain, cerebellum, oral, 50 mg/kg, 50 mg/kg intragastric once daily for 10 days, after last administration, read-out: Concentration in organ: Brain, Cerebellum): 57.5 ng/g | concentration at 10 days ([2]; brain, cerebral cortex, oral, 50 mg/kg, 50 mg/kg intragastric once daily for 10 days, after last administration, read-out: Concentration in organ: Brain, Cerebral cortex): 48.9 ng/g | concentration at 10 days ([2]; brain, cerebral medulla, oral, 50 mg/kg, 50 mg/kg intragastric once daily for 10 days, after last administration, read-out: Concentration in organ: Brain, Cerebral medulla): 53.2 ng/g | concentration at 10 days ([2]; brain, diencephalon, oral, 50 mg/kg, 50 mg/kg intragastric once daily for 10 days, after last administration, read-out: Concentration in organ: Brain, Diencephalon): 77.1 ng/g | concentration at 10 days ([2]; brain, hippocampus, oral, 50 mg/kg, 50 mg/kg intragastric once daily for 10 days, after last administration, read-out: Concentration in organ: Brain, Hippocampus): 64 ng/g | concentration at 10 days ([2]; brain, medulla oblongata, oral, 50 mg/kg, 50 mg/kg intragastric once daily for 10 days, after last administration, read-out: Concentration in organ: Brain, Medulla oblongata): 27.6 ng/g | concentration at 10 days ([2]; brain, midbrain, oral, 50 mg/kg, 50 mg/kg intragastric once daily for 10 days, after last administration, read-out: Concentration in organ: Brain, Midbrain): 7.4 ng/g | concentration at 10 days ([2]; brain, striatum caudate nucleus, oral, 50 mg/kg, 50 mg/kg intragastric once daily for 10 days, after last administration, read-out: Concentration in organ: Brain, Striatum Caudate nucleus): 59.8 ng/g | concentration at 10 days ([2]; brain, striatum putamen, oral, 50 mg/kg, 50 mg/kg intragastric once daily for 10 days, after last administration, read-out: Concentration in organ: Brain, Striatum Putamen): 42.1 ng/g | concentration at 10 days ([2]; heart, oral, 50 mg/kg, 50 mg/kg intragastric once daily for 10 days, after last administration, read-out: Concentration in organ: Heart): 305 ng/g | concentration at 10 days ([2]; kidney (left), oral, 50 mg/kg, 50 mg/kg intragastric once daily for 10 days, after last administration, read-out: Concentration in organ: Kidney (left)): 1600 ng/g | concentration at 10 days ([2]; kidney (right), oral, 50 mg/kg, 50 mg/kg intragastric once daily for 10 days, after last administration, read-out: Concentration in organ: Kidney (right)): 1530 ng/g | concentration at 10 days ([2]; liver, oral, 50 mg/kg, 50 mg/kg intragastric once daily for 10 days, after last administration, read-out: Concentration in organ: Liver): 1120 ng/g | concentration at 10 days ([2]; retina, oral, 50 mg/kg, 50 mg/kg intragastric once daily for 10 days, after last administration, read-out: Concentration in organ: Retina): 689 ng/g | concentration at 10 days ([2]; spleen, oral, 50 mg/kg, 50 mg/kg intragastric once daily for 10 days, after last administration, read-out: Concentration in organ: Spleen): 5280 ng/g
SMILES: CC1=C(/C=C/C(C)=C/C=C/C(C)=C/C=C/C=C(C)/C=C/C=C(C)/C=C/C2=C(C)C(=O)C(O)CC2(C)C)C(C)(C)CC(O)C1 (stereo not drawn) [adonixanthin, 3,3′-dihydroxy-β,β-caroten-4-one]
Concentration in serum (total of cis isomer and trans isomer), FIG. 1 [1]: especially likely to be retained in blood | Transfer into and retention in each organ (summary of Table 2) ([2]; 50 mg/kg intragastric once daily for 10 days): especially likely to be transferred into each organ and retained therein
